# Laboratory results reported in patent US12599657B2 (priority 2020, dated 2026).
# Like-named read-outs stand apart in the source and are kept apart here.
# Assays:
# [1] = tested on: E. acervulina, E. maxima, and E. tenella; assay: First Study: broiler performance (feed intake, FCR, weight gain, mortality) under coccidia challenge; assay type: in vivo; settings: Cocci Vaccine alone
# Procedure: (§1) Testing in all three studies set forth below was undertaken using a high oocyst dose vaccine, Coccivac-B52 (trademark, Intervet Inc.), a product sold by Merck Animal Health. According to the manufacturer, Coccivac-B52 contains E. acervulina, E. maxima, E. mivati, and E. tenella. The vaccine was mixed with water at a dosage of 240 ml of water per 1,000 doses. The vaccine-water combination was placed in a sealed vaccine container and mixed by stirring and inversion of the container. The mixed vaccine-water combination was sprayed onto each chick when one day old in a conventional spray cabinet. It was estimated that each chick ingested an equal number of droplets so as to result in the ingestion of about 240 μL dose per chick.
# The rations consisted of non-medicated commercial-type broiler starter, grower, and finisher diets compounded according to NRC guidelines and contained feedstuffs commonly used in the United States. As a common regime rations for some but not necessarily all studies were fed ad libitum from date of chick arrival as follows: Starter—DOT 0 until DOT 14, grower DOT 14 to DOT 28, and finisher from DOT 28 to DOT 42 (study termination).
# Diets were fed as crumbles in starter and pellets in grower and finisher. Experimental treatment feeds were prepared from a basal feed formulation. Quantities of all basal feed and test articles included in treatment group batches were documented and included with source data files. Treatment feeds were mixed prior to pelleting to assure uniform distribution of respective test articles.
# Fifteen hundred birds (1,500) were assigned to six (6) treatment groups with ten (10) replicate pens per treatment and 25 birds per pen. The study began when birds were placed (day-of-hatch; DOT 0), at which time birds were allocated to experimental pens. Only healthy birds were selected. On DOT 0, group body weights were recorded by pen. No birds were replaced during the course of the study.
# Birds received treatment-appropriate feed from day 0 to day 42. On day 14, remaining starter feed was removed, weighed, and replaced with grower feed to day 28. On day 28, the remaining grower feed was removed, weighed back, and replaced with finisher feed to day 42.
# On Day 42, the trial was terminated.
# [2] = tested on: E. acervulina, E. maxima, and E. tenella; assay: First Study: average coccidia lesion score; assay type: in vivo, broiler; settings: DOT 26, Johnson and Reid 0 to 4 score, Salinomycin 60 gms/ton No Vaccine, Cocci Vaccine alone
# [3] = tested on: E. acervulina, E. maxima, and E. tenella; assay: First Study: total oocysts per gram of feces; assay type: in vivo, broiler; settings: feces on DOT 26, Salinomycin 60 gms/ton No Vaccine, Cocci Vaccine alone
# [4] = tested on: E. acervuline, E. maxima, and E. tenella; assay: Third Study: broiler performance (feed intake, FCR, weight gain, mortality) under coccidia challenge; assay type: in vivo, male broiler chicks; settings: Disclosed compound 1.0/1.0/0.5 lb/ton with Vacc
# Procedure: as §1
# Rations consisted of non-medicated commercial-type broiler starter, grower, and finisher diets compounded according to NRC guidelines and contain feedstuffs commonly used in the United States. Day-of-hatch male broiler chicks were utilized in the study. Rations were fed ad libitum from date of chick arrival as follows: Starter—day 0 until day 14, grower day 14 to day 28, and finisher from day 28 to day 42 (the end date of the study). Coccidia vaccination for treatments 4 and 5 only.
# One thousand five hundred birds (1,500) were randomly assigned to 5 treatment groups with 12 replicate pens per treatment and 25 birds per pen. The study began when birds were placed (day-of-hatch; DAY 0), at which time birds were allocated to experimental pens. On day 0, group body weights were recorded by pen. No birds were replaced during the course of the study.
# All birds were weighed by pen on days 0, 14, 28, and 42. Feed added to each pen's feeder was weighed at the beginning of each formulation period on day 0 (starter), day 14 (grower), and day 28 (finisher). Feed was distributed as needed to feeders from pre-weighed bags assigned to each pen throughout each period. Feed remaining in feeders was weighed and disposed of on days 14, 28, and 42. The trial was terminated on day 42.
# [5] = tested on: E. acervulina, E. maxima, and E. tenella; assay: Third Study: average coccidia lesion score; assay type: in vivo, male broiler chicks; settings: Day 26, 0 to 4 score, Salinomycin 60 g/ton No Vacc, Disclosed compound 1.0/1.0/0.5 lb/ton with Vacc
# [6] = tested on: E. acervulina, E. maxima, and E. tenella; assay: Third Study: total oocysts per gram of feces; assay type: in vivo, male broiler chicks
# [7] = tested on: E. acervulina; settings: First Study; DOT 26; Johnson and Reid 0 to 4 score; Salinomycin 60 gms/ton No Vaccine; Cocci Vaccine alone
# [8] = tested on: E. maxima; settings: First Study; DOT 26; Johnson and Reid 0 to 4 score; Salinomycin 60 gms/ton No Vaccine; Cocci Vaccine alone
# [9] = tested on: E. tenella; settings: First Study; DOT 26; Johnson and Reid 0 to 4 score; Salinomycin 60 gms/ton No Vaccine; Cocci Vaccine alone
# [10] = tested on: E. acervulina; settings: First Study; feces on DOT 26; Salinomycin 60 gms/ton No Vaccine; Cocci Vaccine alone
# [11] = tested on: E. maxima; settings: First Study; feces on DOT 26; Salinomycin 60 gms/ton No Vaccine; Cocci Vaccine alone
# [12] = tested on: E. tenella; settings: First Study; feces on DOT 26; Salinomycin 60 gms/ton No Vaccine; Cocci Vaccine alone
# [13] = tested on: E. acervulina; settings: Third Study; Day 26; 0 to 4 score; Salinomycin 60 g/ton No Vacc; Disclosed compound 1.0/1.0/0.5 lb/ton with Vacc
# [14] = tested on: E. maxima; settings: Third Study; Day 26; 0 to 4 score; Salinomycin 60 g/ton No Vacc; Disclosed compound 1.0/1.0/0.5 lb/ton with Vacc
# [15] = tested on: E. tenella; settings: Third Study; Day 26; 0 to 4 score; Salinomycin 60 g/ton No Vacc; Disclosed compound 1.0/1.0/0.5 lb/ton with Vacc
# [16] = tested on: E. acervulina; settings: Third Study; feces Day 26; Salinomycin 60 g/ton No Vacc; Disclosed compound 1.0/1.0/0.5 lb/ton with Vacc
# [17] = tested on: E. maxima; settings: Third Study; feces Day 26; Salinomycin 60 g/ton No Vacc; Disclosed compound 1.0/1.0/0.5 lb/ton with Vacc
# [18] = tested on: E. tenella; settings: Third Study; feces Day 26; Salinomycin 60 g/ton No Vacc; Disclosed compound 1.0/1.0/0.5 lb/ton with Vacc
# [19] = tested on: E. acervuline, E. maxima, and E. tenella; assay: Third Study: broiler performance (feed intake, FCR, weight gain, mortality) under coccidia challenge; assay type: in vivo, male broiler chicks; settings: Day 0 to 41, challenge day 21, Salinomycin 60 g/ton No Vacc, Disclosed compound 1.0/1.0/0.5 lb/ton with Vacc
# [20] = Day 0 to 14, cocci challenge Day 20, Salinomycin 60 gms/ton No Vaccine
# [21] = Day 0 to 28, cocci challenge Day 20, Salinomycin 60 gms/ton No Vaccine
# [22] = Day 0 to 42, cocci challenge Day 20, Salinomycin 60 gms/ton No Vaccine
# [23] = Day 0 to 14, challenge day 21, Salinomycin 60 g/ton No Vacc
# [24] = Day 0 to 28, challenge day 21, Salinomycin 60 g/ton No Vacc
smiles,measurement,setting,value
CC[C@@H](C(=O)[C@@H](C)[C@@H](O)[C@H](C)[C@@H]1O[C@@H]([C@@H](CC)C(=O)O)CC[C@@H]1C)[C@H]1O[C@]2(C=C[C@@H](O)[C@]3(CC[C@@](C)([C@H]4CC[C@](O)(CC)[C@H](C)O4)O3)O2)[C@H](C)C[C@@H]1C [Salinomycin],Adjusted FCR (feed conversion ratio adjusted for mortality),[1]; [20],1.58A
same,Feed Intake,[1]; [20],11.48A
same,Non-Adjusted FCR,[1]; [20],1.60A
same,Weight Gain,[1]; [20],0.31B kg
same,Adjusted FCR (feed conversion ratio adjusted for mortality),[1]; [21],1.64B
same,Feed Intake,[1]; [21],38.69C
same,Non-Adjusted FCR,[1]; [21],1.78AB
same,Weight Gain,[1]; [21],1.01B kg
same,Adjusted FCR (feed conversion ratio adjusted for mortality),[1]; [22],1.67B
same,Cocci Percent Mortality,[1]; [22],8.40A Percent
same,Feed Intake,[1]; [22],80.16B
same,Non-Adjusted FCR,[1]; [22],1.81AB
same,Percent Mortality,[1]; [22],18.00A Percent
same,Weight Gain,[1]; [22],2.39AB kg
same,"Mean Coccidia Lesion Score, Average",[2],1.97BC
same,Total OPG,[3],52866AB oocysts per gram
same,Adjusted FCR (FCR adjusted for mortality),[4]; [23],1.41A
same,Feed Intake,[4]; [23],12.09A
same,Non-Adjusted FCR,[4]; [23],1.42A
same,Weight Gain,[4]; [23],0.34B kg
same,Adjusted FCR (FCR adjusted for mortality),[4]; [24],1.50AB
same,Feed Intake,[4]; [24],44.75B
same,Non-Adjusted FCR,[4]; [24],1.51B
same,Weight Gain,[4]; [24],1.20B kg
same,"Mean Coccidia Lesion Score, Average",[5],2.04AB
same,count of oocysts among groups,[6]; day of feces collection (day 27),highest count of oocysts
same,Total OPG,"[6]; feces Day 26, Salinomycin 60 g/ton No Vacc, Disclosed compound 1.0/1.0/0.5 lb/ton with Vacc","55,117A oocysts per gram"
same,"Mean Coccidia Lesion Score, E. acervulina",[7],1.80BC
same,"Mean Coccidia Lesion Score, E. maxima",[8],1.93A
same,"Mean Coccidia Lesion Score, E. tenella",[9],2.17AB
same,OPG A,[10],49418AB oocysts per gram
same,OPG M,[11],2615A oocysts per gram
same,OPG T,[12],834A oocysts per gram
same,"Mean Coccidia Lesion Score, E. acervulina",[13],2.31A
same,"Mean Coccidia Lesion Score, E. maxima",[14],1.78AB
same,"Mean Coccidia Lesion Score, E. tenella",[15],2.03AB
same,OPG A,[16],"23,995A oocysts per gram"
same,OPG M,[17],"9,666A oocysts per gram"
same,OPG T,[18],"21,455A oocysts per gram"
same,Adjusted FCR (FCR adjusted for mortality),[19],1.60AB
same,Cocci Percent Mortality,[19],0.00A Percent
same,Feed Intake,[19],92.63B
same,Non-Adjusted FCR,[19],1.61BC
same,Percent Mortality,[19],1.33B Percent
same,Weight Gain,[19],2.49BC kg
same,Percent Mortality,[19]; listed as salinomycin,1.33%
